In one test the target is human FPR2 receptor (Homo sapiens (Human), UniProt P25090). The experiment in a line: FLIPR Ca+2 response in HEK-Gα16 cells stably expressing the human FPR2 receptor. The format is cell-based. More on the design: FPR2 (% eff): unit not given here. To be noted: Table 4. As to the method:
FLIPR: HEK-Gα16 cells stably expressing the human FPR2 receptor was utilized. Cells were plated into 384-well poly-D-lysine coated plates at a density of 18,000 cells per well one day prior to use. The growth media was DMEM medium supplemented with 10% fetal bovine serum (FBS), 1% antibiotic-antimycotic, 50 μg/ml hygromycin, and 400 μg/ml geneticin. On the day of the experiment, the cells were washed twice with Hank's Balanced Salt Solution supplemented with 20 mM HEPES (HBSS/hepes buffer). The cells were then dye loaded with 2 μM Fluo-4 diluted in the HBSS/Hepes buffer and incubated at 37° C. for 40 minutes. Extracellular dye was removed by washing the cell plates four times prior to placing the plates in the FLIPR (Fluorometric Imaging Plate Reader, Molecular Devices). Ligands were diluted in HBSS/Hepes buffer and prepared in 384-well microplates. Data for Ca^+2 responses were obtained in relative fluorescence units.
Sequence of human FPR2 receptor (P25090 whole entry): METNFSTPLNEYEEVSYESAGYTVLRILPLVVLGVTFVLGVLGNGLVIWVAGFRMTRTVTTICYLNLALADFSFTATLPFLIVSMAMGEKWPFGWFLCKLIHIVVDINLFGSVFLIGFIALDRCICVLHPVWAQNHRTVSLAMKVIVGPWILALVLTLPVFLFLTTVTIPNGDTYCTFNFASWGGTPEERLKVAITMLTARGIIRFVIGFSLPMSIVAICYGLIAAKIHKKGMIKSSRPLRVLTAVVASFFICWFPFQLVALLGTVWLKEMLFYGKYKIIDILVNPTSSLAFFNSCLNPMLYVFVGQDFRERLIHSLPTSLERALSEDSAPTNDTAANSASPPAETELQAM
For `CC(=O)CNC(=O)[C@H](Cc1ccccc1)NC(=O)Nc1ccc(Br)cc1F` [Compound 68, (2S)-2-{[(4-bromo-2-fluorophenyl)carbamoyl]amino}-N-(2-oxopropyl)-3-phenylpropanamide], the EC50 stood at 12.4 nM.

Turning to `CCC(CC)(NC(=O)Nc1ccc(Br)cc1)C(=O)NCC(=O)O` [Compound 113], the EC50 stood at 18.7 nM.

The test is the same for the next values; noted with them: Table 4; value in brackets, given mostly as fraction.
As for `CCOP(=O)(O)CNC(=O)[C@H](CC(C)C)NC(=O)Nc1ccc(Br)cc1` [Compound 105, ethyl hydrogen ({[(2S)-2-{[(4-bromophenyl)carbamoyl]amino}-4-methylpentanoyl]amino}methyl)phosphonate], the “FPR2 (% eff)” value stood at 0.88.

`CCC[C@H](NC(=O)Nc1ccc(Br)cc1)C(=O)NCC(=O)O` [Compound 2, {[(2S)-2-{[(4-bromophenyl)carbamoyl]amino}pentanoyl]amino}acetic acid]: the “FPR2 (% eff)” value was 0.91.

Take `CC(C)C1(C(C)C)NC(=O)N(NC(=O)Nc2ccc(Br)cc2)C1=O` [Compound 64, 1-(4-bromophenyl)-3-[2,5-dioxo-4,4-di(propan-2-yl)imidazolidin-1-yl]urea]: the “FPR2 (% eff)” value stood at 1.0.

As for `CC(C)C[C@H](NC(=O)Nc1ccc(Br)cc1)C(=O)N(C)CC(=O)O` [Compound 155, {[(2S)-2-{[(4-bromophenyl)carbamoyl]amino}-4-methylpentanoyl](methyl)amino}acetic acid], the “FPR2 (% eff)” value amounted to 1.0.

Consider `CC(C)C[C@H](NC(=O)Nc1ccc(Br)cc1)C(=O)NCC(=O)N(C)C` [Compound 120, (2S)-2-{[(4-bromophenyl)carbamoyl]amino}-N-[2-(dimethylamino)-2-oxoethyl]-4-methylpentanamide], for which the “FPR2 (% eff)” value amounted to 0.99.

`CCC1(CCc2ccccc2C(=O)O)NC(=O)N(NC(=O)Nc2ccc(Br)cc2)C1=O` (stereo not shown) [Compound 143, 2-[2-(1-{[(4-bromophenyl)carbamoyl]amino}-4-ethyl-2,5-dioxoimidazolidin-4-yl)ethyl]benzoic acid]: the “FPR2 (% eff)” value stood at 1.0.

Regarding `CC(C)C[C@H](NC(=O)Nc1ccc(Br)cc1)C(=O)N[C@H](C(=O)O)C(C)C` [Compound 91, (2S)-2-{[(2S)-2-{[(4-bromophenyl)carbamoyl]amino}-4-methylpentanoyl]amino}-3-methylbutanoic acid], the “FPR2 (% eff)” value was 0.97.

For `CC1(CCc2ccccc2O)NC(=O)N(NC(=O)Nc2ccc(Br)cc2F)C1=O` (stereo not shown) [Compound 106, 1-(4-bromo-2-fluorophenyl)-3-[4-[2-[2-hydroxyphenyl)ethyl]-4-methyl-2,5-dioxoimidazolidin-1-yl}urea], the “FPR2 (% eff)” value turned out to be 0.91.

As to `CC(C)C1(CCc2ccccc2C(=O)O)NC(=O)N(NC(=O)Nc2ccc(Br)cc2)C1=O` (stereo not shown) [Compound 151, 2-{2-[1-{[(4-bromophenyl)carbamoyl]amino}-2,5-dioxo-4-(propan-2-yl)imidazolidin-4-yl]ethyl}benzoic acid], the “FPR2 (% eff)” value was 1.0.

Regarding `CCOC(=O)CCC1(C(C)C)NC(=O)N(NC(=O)Nc2ccc(Br)cc2)C1=O` (stereo not shown) [Compound 149, ethyl 3-[1-{[(4-bromophenyl)carbamoyl]amino}-2,5-dioxo-4-(propan-2-yl)imidazolidin-4-yl]propanoate], the “FPR2 (% eff)” value was determined as 0.94.

With `CCC[C@H](NC(=O)Nc1ccc(Br)cc1)C(=O)NCC(=O)OC(C)C` [Compound 73, propan-2-yl {[(2S)-2-{[(4-bromophenyl)carbamoyl]amino}pentanoyl]amino}acetate], the “FPR2 (% eff)” value is recorded as 1.0.

As to `CC1(CCc2ccc(O)c(F)c2)NC(=O)N(NC(=O)Nc2ccc(Br)cc2)C1=O` (stereo not shown) [Compound 99, 1-(4-bromophenyl)-3-{4-[2-(3-fluoro-4-hydroxyphenyl)ethyl]-4-methyl-2,5-dioxoimidazolidin-1-yl}urea], the “FPR2 (% eff)” value worked out at 1.0.

As for `CCC1(CC)NC(=O)N(NC(=O)Nc2ccc(Br)cc2)C1=O` [Compound 49, 1-(4-bromophenyl)-3-(4,4-diethyl-2,5-dioxoimidazolidin-1-yl)urea], the “FPR2 (% eff)” value turned out to be 0.98.

Take `CCC[C@H](NC(=O)Nc1ccc(Br)cc1)C(=O)O` [Compound 70, (2S)-2-{[(4-bromophenyl)carbamoyl]amino}pentanoic acid]: the “FPR2 (% eff)” value worked out at 1.0.

Consider `CC1(CCc2ccco2)NC(=O)N(NC(=O)Nc2ccc(Br)cc2)C1=O` (stereo not shown) [Compound 76, 1-(4-bromophenyl)-3-{4-[2-(furan-2-yl)ethyl]-4-methyl-2,5-dioxoimidazolidin-1-yl}urea], for which the “FPR2 (% eff)” value turned out to be 0.99.

Consider `CCC[C@H](NC(=O)Nc1ccc(Br)cc1)C(=O)NCP(=O)(O)OCC` [Compound 123, ethyl hydrogen ({[(2S)-2-{[(4-bromophenyl)carbamoyl]amino}pentanoyl]amino}methyl) phosphonate], for which the “FPR2 (% eff)” value amounted to 0.96.

Turning to `CCC1(CCc2ccccc2C(=O)O)NC(=O)N(NC(=O)Nc2ccc(Br)cc2F)C1=O` (stereo not shown) [Compound 146, 2-[2-(1-{[(4-bromo-2-fluorophenyl)carbamoyl]amino}-4-ethyl-2,5-dioxoimidazolidin-4-yl)ethyl]benzoic acid], the “FPR2 (% eff)” value is 1.0.

As for `CSc1ccc(NC(=O)C2C(C(N)=O)C3CCC2C3(C)C)cc1` (stereo not shown) [Compound 37, 7,7-dimethyl-N-[4-(methylsulfanyl)phenyl]bicyclo [2.2.1]heptane-2,3-dicarboxamide], the “FPR2 (% eff)” value was found to be 0.85.

As to `NC(=O)C1C(C(=O)Nc2ccc(I)cc2)C2CCC1C21CC1` (stereo not shown) [Compound 38, N-(4-iodophenyl)spiro[bicyclo[2.2.1]heptane-7,1′-cyclopropane]-2,3-dicarboxamide], the “FPR2 (% eff)” value is given as 0.95.

Turning to `CCOP(=O)(CNC(=O)[C@H](Cc1ccccc1)NC(=O)Nc1ccc(Br)cc1)OCC` [Compound 118, diethyl ({[(2S)-2-{[(4-bromophenyl)carbamoyl]amino}-3-phenylpropanoyl]amino}methyl)phosphonate], the “FPR2 (% eff)” value turned out to be 0.93.

As for `CC(=O)CNC(=O)[C@H](CC(C)C)NC(=O)Nc1ccc(Br)cc1` [Compound 78, (2S)-2-{[(4-bromophenyl)carbamoyl]amino}-4-methyl-N-(2-oxopropyl)pentanamide], the “FPR2 (% eff)” value was 0.82.

In the case of `CCC[C@H](NC(=O)Nc1ccc(Br)cc1)C(=O)NCP(=O)(OC(C)C)OC(C)C` [Compound 125, dipropan-2-yl ({[(2S)-2-{[(4-bromophenyl)carbamoyl]amino}pentanoyl]amino}methyl) phosphonate], the “FPR2 (% eff)” value worked out at 1.0.

With `CCOP(=O)(O)CNC(=O)[C@H](Cc1ccccc1)NC(=O)Nc1ccc(Br)cc1` [Compound 126, ethyl hydrogen ({[(2S)-2-{[(4-bromophenyl)carbamoyl]amino}3-phenylpropanoyl]amino}methyl)phosphonate], the “FPR2 (% eff)” value is on record as 1.0.

As to `CCOP(=O)(CCNC(=O)CC1(C(C)C)NC(=O)N(NC(=O)Nc2ccc(Br)cc2)C1=O)OCC` (stereo not shown) [Compound 152, diethyl [2-({[1-{[(4-bromophenyl)carbamoyl]amino}-2,5-dioxo-4-(propan-2-yl)imidazolidin-4-yl]acetyl}amino)ethyl] phosphonate], the “FPR2 (% eff)” value was 1.0.

Turning to `O=C(Nc1ccc(Br)cc1)NN1C(=O)NC2(CCCCC2)C1=O` [Compound 52, 1-(4-bromophenyl)-3-(2,4-dioxo-1,3-diazaspiro[4.5]dec-3-yl)urea], the “FPR2 (% eff)” value was determined as 1.0.

For the compound `CC(=O)CNC(=O)[C@H](Cc1ccccc1)NC(=O)Nc1ccc(Br)cc1F` [Compound 68, (2S)-2-{[(4-bromo-2-fluorophenyl)carbamoyl]amino}-N-(2-oxopropyl)-3-phenylpropanamide], the “FPR2 (% eff)” value was 0.94.

In the case of `CC(C)C1(CO)NC(=O)N(NC(=O)Nc2ccc(Br)cc2)C1=O` (stereo not shown) [Compound 132, 1-(4-bromophenyl)-3[4-(hydroxymethyl)-2,5-dioxo-4-(propan-2-yl)imidazolidin-1-yl]urea], the “FPR2 (% eff)” value stood at 0.86.

As for `CC(C)C[C@H](NC(=O)Nc1ccc(C(F)(F)F)cc1)C(=O)NCc1nnn[nH]1` [Compound 136, (2S)-4-methyl-N-(1H-tetrazol-5-ylmethyl)-2-({[4-(trifluoromethyl)phenyl]carbamoyl}amino)pentanamide], the “FPR2 (% eff)” value was found to be 0.96.

For the compound `CCC[C@H](NC(=O)Nc1ccc(Br)cc1F)C(=O)NCC(=O)O` [Compound 74, {[(2S)-2-{[(4-bromo-2-fluorophenyl)carbamoyl]amino}pentanoyl]amino}acetic acid], the “FPR2 (% eff)” value came out at 0.91.

In the case of `CSCC[C@H](NC(=O)Nc1ccc(Br)cc1)C(=O)NCC(=O)O` [Compound 144, {[(2S)-2-{[(4-bromophenyl)carbamoyl]amino}-4-(methylsulfanyl)butanoyl]amino}acetic acid], the “FPR2 (% eff)” value is 0.91.

In the case of `CCC[C@H](NC(=O)[C@H](CC(C)C)NC(=O)Nc1ccc(Br)cc1)C(=O)OC(C)(C)C` [Compound 100, tert-butyl (2S)-2-{[(2S)-2-{[(4-bromophenyl)carbamoyl]amino}-4-methylpentanoyl]amino} pentanoate], the “FPR2 (% eff)” value is listed as 1.0.

In the case of `CCC(CC)(NC(=O)Nc1ccc(Br)cc1)C(=O)NCC(=O)O` [Compound 113], the FPR2 (% eff) was 100.

Consider `CSc1ccc(NC(=O)Nc2ccc3c(c2)C(=O)N(CCCN)C(C)C3)cc1` (stereo not shown) [Compound 42, 1-[2-(3-aminopropyl)-3-methyl-1-oxo-1,2,3,4-tetrahydroisoquinolin-7-yl]-3-[4-(methylsulfanyl)phenyl]urea], for which the “FPR2 (% eff)” value is listed as 1.00.

Consider `CC1(CCc2ccc(F)cc2)NC(=O)N(NC(=O)Nc2ccc(Br)cc2)C1=O` (stereo not shown) [Compound 82, 1-(4-bromophenyl)-3-{4-[2-(4-fluorophenyl)ethyl]-4-methyl-2,5-dioxoimidazolidin-1-yl}urea], for which the “FPR2 (% eff)” value was 1.0.

Consider `O=C(Nc1ccc(Br)cc1)NN1C(=O)NC(C2CC2)(C2CC2)C1=O` [Compound 65, 1-(4-bromophenyl)-3-(4,4-dicyclopropyl-2,5-dioxoimidazolidin-1-yl)urea], for which the “FPR2 (% eff)” value was 1.0.

The term EC50 denotes the concentration that produces a half-maximal response.

These data come from patent US10434112B2, “Use of agonists of formyl peptide receptor 2 for treating dermatological diseases” (Allergan, Inc., priority 2013, dated 2019).
